Activity calls are given as the source filed them. The rule behind the calls is not given here.
Columns and labels:
[1] = Inhibition of cell proliferation in IL-15-induced mouse CTLL-2 cells measured after 72 hrs by MTT assay; assay type: functional, cell-based; conditions: CTLL-2, 72 h
[2] = species on record: Homo sapiens; test: Antagonist activity at IL-15Ralpha (unknown origin) assessed as inhibition of IL-15/IL-15Ralpha complex formation at 20 ug/ml using TMB as substrate incubated for 1 hr and measured after 1 hr by ELISA relative to control; conditions: filed as antagonist, dose 20.0 µg/ml
[3] = tested on: Synovial cell; test: Inhibition of IL-15-induced TNF-alpha secretion in human synovial cells at 50 ug/ml and measured after 48 hrs by ELISA relative to control; assay type: functional, cell-based; conditions: dose 50.0 µg/ml
[4] = tested on: Synovial cell; test: Inhibition of IL-15-induced IL-6 secretion in human synovial cells at 50 ug/ml and measured after 48 hrs by ELISA relative to control; assay type: functional, cell-based; conditions: dose 50.0 µg/ml

SMILES | IC50 [1] [µM] | inhibition [2] [%] | inhibition [3] | inhibition [4]
CSCC[C@H](NC(=O)[C@H](C)NC(=O)[C@@H](NC(=O)[C@@H](NC(=O)[C@H](N)CCCCN)C(C)C)[C@@H](C)O)C(=O)N[C@@H](CCCCN)C(=O)N[C@@H](CS)C(=O)N[C@@H](Cc1ccccc1)C(=O)N[C@@H](CC(C)C)C(=O)N[C@@H](CC(C)C)C(=O)O | 100 | – | – | –
CSCC[C@H](NC(=O)[C@H](C)NC(=O)[C@@H](NC(=O)[C@@H](NC(=O)[C@@H](N)CCCCN)C(C)C)[C@@H](C)O)C(=O)N[C@@H](CCCCN)C(=O)N[C@H](CS)C(=O)N[C@@H](Cc1ccccc1)C(=O)N[C@@H](CC(C)C)C(=O)N[C@@H](CC(C)C)C(=O)O | 103 | – | – | –
CSCC[C@H](NC(=O)[C@@H](C)NC(=O)[C@@H](NC(=O)[C@@H](NC(=O)[C@H](N)CCCCN)C(C)C)[C@@H](C)O)C(=O)N[C@@H](CCCCN)C(=O)N[C@@H](CS)C(=O)N[C@@H](Cc1ccccc1)C(=O)N[C@@H](CC(C)C)C(=O)N[C@@H](CC(C)C)C(=O)O | 29 | 89 | Active | Active
CSCC[C@@H](NC(=O)[C@H](C)NC(=O)[C@@H](NC(=O)[C@@H](NC(=O)[C@@H](N)CCCCN)C(C)C)[C@@H](C)O)C(=O)N[C@@H](CCCCN)C(=O)N[C@@H](CS)C(=O)N[C@@H](Cc1ccccc1)C(=O)N[C@@H](CC(C)C)C(=O)N[C@@H](CC(C)C)C(=O)O | 292 | – | – | –
CSCC[C@H](NC(=O)[C@H](C)NC(=O)[C@@H](NC(=O)[C@H](NC(=O)[C@@H](N)CCCCN)C(C)C)[C@@H](C)O)C(=O)N[C@@H](CCCCN)C(=O)N[C@@H](CS)C(=O)N[C@@H](Cc1ccccc1)C(=O)N[C@@H](CC(C)C)C(=O)N[C@@H](CC(C)C)C(=O)O | 142 | – | – | –
CSCC[C@H](NC(=O)[C@@H](C)NC(=O)[C@@H](NC(=O)[C@@H](NC(=O)[C@@H](N)CCCCN)C(C)C)[C@@H](C)O)C(=O)N[C@@H](CCCCN)C(=O)N[C@@H](CS)C(=O)N[C@@H](Cc1ccccc1)C(=O)N[C@@H](CC(C)C)C(=O)N[C@@H](CC(C)C)C(=O)O | 28 | 92 | Active | Active
CSCC[C@H](NC(=O)[C@H](C)NC(=O)[C@@H](NC(=O)[C@@H](NC(=O)[C@@H](N)CCCCN)C(C)C)[C@@H](C)O)C(=O)N[C@@H](CCCCN)C(=O)N[C@@H](CS)C(=O)N[C@H](Cc1ccccc1)C(=O)N[C@@H](CC(C)C)C(=O)N[C@@H](CC(C)C)C(=O)O | 118 | – | – | –
CSCC[C@H](NC(=O)[C@H](C)NC(=O)[C@@H](NC(=O)[C@@H](NC(=O)[C@@H](N)CCCCN)C(C)C)[C@@H](C)O)C(=O)N[C@H](CCCCN)C(=O)N[C@@H](CS)C(=O)N[C@@H](Cc1ccccc1)C(=O)N[C@@H](CC(C)C)C(=O)N[C@@H](CC(C)C)C(=O)O | 168 | – | – | –
CSCC[C@H](NC(=O)[C@H](C)NC(=O)[C@@H](NC(=O)[C@@H](NC(=O)[C@@H](N)CCCCN)C(C)C)[C@@H](C)O)C(=O)N[C@@H](CCCCN)C(=O)N[C@@H](CS)C(=O)N[C@@H](Cc1ccccc1)C(=O)N[C@H](CC(C)C)C(=O)N[C@@H](CC(C)C)C(=O)O | 134 | – | – | –
CSCC[C@H](NC(=O)[C@@H](C)NC(=O)[C@@H](NC(=O)[C@@H](NC(=O)[C@@H](N)CCCCN)C(C)C)[C@@H](C)O)C(=O)N[C@@H](CCCCN)C(=O)N[C@H](CS)C(=O)N[C@@H](Cc1ccccc1)C(=O)N[C@@H](CC(C)C)C(=O)N[C@@H](CC(C)C)C(=O)O | 296 | – | – | –
CSCC[C@H](NC(=O)[C@H](C)NC(=O)[C@@H](NC(=O)[C@@H](NC(=O)[C@@H](N)CCCCN)C(C)C)[C@@H](C)O)C(=O)N[C@@H](CCCCN)C(=O)N[C@@H](CS)C(=O)N[C@@H](Cc1ccccc1)C(=O)N[C@@H](CC(C)C)C(=O)N[C@H](CC(C)C)C(=O)O | 133 | – | – | –
CSCC[C@H](NC(=O)[C@@H](C)NC(=O)[C@@H](NC(=O)[C@@H](NC(=O)[C@@H](N)CCCCN)C(C)C)[C@@H](C)O)C(=O)N[C@@H](CCCCN)C(=O)N[C@@H](CSSC[C@H](NC(=O)[C@H](CCCCN)NC(=O)[C@H](CCSC)NC(=O)[C@@H](C)NC(=O)[C@@H](NC(=O)[C@@H](NC(=O)[C@@H](N)CCCCN)C(C)C)[C@@H](C)O)C(=O)N[C@@H](Cc1ccccc1)C(=O)N[C@@H](CC(C)C)C(=O)N[C@@H](CC(C)C)C(=O)O)C(=O)N[C@@H](Cc1ccccc1)C(=O)N[C@@H](CC(C)C)C(=O)N[C@@H](CC(C)C)C(=O)O | 8 | 96 | Active | Active
CSCC[C@H](NC(=O)[C@H](C)NC(=O)[C@@H](NC(=O)[C@@H](NC(=O)[C@@H](N)CCCCN)C(C)C)[C@@H](C)O)C(=O)N[C@@H](CCCCN)C(=O)N[C@@H](CS)C(=O)N[C@@H](Cc1ccccc1)C(=O)N[C@@H](CC(C)C)C(=O)N[C@@H](CC(C)C)C(=O)O | 130 | 70 | – | –
CSCC[C@H](NC(=O)[C@@H](C)NC(=O)[C@@H](NC(=O)[C@@H](NC(=O)[C@H](N)CCCCN)C(C)C)[C@@H](C)O)C(=O)N[C@@H](CCCCN)C(=O)N[C@@H](CSSC[C@H](NC(=O)[C@H](CCCCN)NC(=O)[C@H](CCSC)NC(=O)[C@@H](C)NC(=O)[C@@H](NC(=O)[C@@H](NC(=O)[C@H](N)CCCCN)C(C)C)[C@@H](C)O)C(=O)N[C@@H](Cc1ccccc1)C(=O)N[C@@H](CC(C)C)C(=O)N[C@@H](CC(C)C)C(=O)O)C(=O)N[C@@H](Cc1ccccc1)C(=O)N[C@@H](CC(C)C)C(=O)N[C@@H](CC(C)C)C(=O)O | 12 | 92 | Active | Active
CSCC[C@H](NC(=O)[C@@H](C)NC(=O)[C@@H](NC(=O)[C@@H](NC(=O)[C@@H](N)CCCCN)C(C)C)[C@@H](C)O)C(=O)N[C@@H](CCCCN)C(=O)N[C@H](CSSC[C@@H](NC(=O)[C@H](CCCCN)NC(=O)[C@H](CCSC)NC(=O)[C@@H](C)NC(=O)[C@@H](NC(=O)[C@@H](NC(=O)[C@@H](N)CCCCN)C(C)C)[C@@H](C)O)C(=O)N[C@@H](Cc1ccccc1)C(=O)N[C@@H](CC(C)C)C(=O)N[C@@H](CC(C)C)C(=O)O)C(=O)N[C@@H](Cc1ccccc1)C(=O)N[C@@H](CC(C)C)C(=O)N[C@@H](CC(C)C)C(=O)O | 56 | – | – | –
CSCC[C@H](NC(=O)[C@H](C)NC(=O)[C@H](NC(=O)[C@@H](NC(=O)[C@@H](N)CCCCN)C(C)C)[C@H](C)O)C(=O)N[C@@H](CCCCN)C(=O)N[C@@H](CS)C(=O)N[C@@H](Cc1ccccc1)C(=O)N[C@@H](CC(C)C)C(=O)N[C@@H](CC(C)C)C(=O)O | 159 | – | – | –

From ChEMBL document CHEMBL5052836, “Interleukin-15 activity antagonist peptide” (2019)
